The results in this text go back to US20260158056A1, “USE OF LOW MOLECULAR WEIGHT HYALURONIC ACID FOR THE TREATMENT OF LUNG MUCOSAL INFLAMMATION” (INSTITUT NATIONAL DE LA SANTÉ ET DE LA RECHERCHE MÉDICALE, priority 2021, published 2026).

Holding throughout (type): cell-based
The test system of experiment [1] is IL-8 secreted by F508del/F508del CF human airway epithelial cells. As to the kind of experiment: IL-8 ELISA, CF airway epithelial cell monolayers, Cytomix + treatment 24 h (co-treatment). The conditions noted are these: FIG. 3, 6; co-treatment: Cytomix + HA 1 mg/mL or Dexa 10^-6M 24 h; n=7 CF patients. The method, then: (§1) FIG. 3: Measurement by ELISA assay of the pro-inflammatory chemokine IL-8 secreted by F508del/F508del CF human airway epithelial cells cultured as monolayers. Airway epithelial cells were seeded in 48-wells plates and cultured until confluence was reached. Cells were then treated for 24 h with a combo containing a pro-inflammatory chemokine cocktail (TNFα, IL1β and IFNγ; 10 ng/mL each) called Cytomix (Cy) and the anti-inflammatory dexamethasone (Dexa; 10^-6M), 15-45 kDa sodium-hyaluronic acid (HA-Na 15-45 kDa) (ARD—Pomacle—France—as prepared according to WO2004050187), 15-30 kDa sodium-hyaluronic acid (HA-Na 15-30 kDa) (Sigma Aldrich), or 30-50 kDa sodium-hyaluronic acid (HA-Na 30-50 kDa) (Sigma Aldrich) at 1 mg/mL. The culture medium was then collected and the IL-8 content was determined. n=7 F508del/F508del CF patient. p<0.001 (***); p<0.01 (**); p<0.05 (*). ns: non-significant.
(§2) FIG. 6: Measurement by ELISA assay of the pro-inflammatory chemokine IL-8 secreted by F508del/F508del CF human airway epithelial cells cultured as monolayers. Airway epithelial cells were seeded in 48-wells plates and cultured until confluence was reached. Cells were then treated for 24 h with a combo containing a pro-inflammatory chemokine cocktail (TNFα, IL1β and IFNγ 10 ng/mL each) called Cytomix (Cy) and the anti-inflammatory dexamethasone (Dexa; 10^-6M), or 15-45 kDa sodium-hyaluronic acid (HA-Na 15-45 kDa) (ARD—Pomacle—France—as prepared according to WO2004050187), 15-45 kDa calcium-hyaluronic acid (HA-Ca 15-45 kDa; ARD), or 15-45 kDa potassium-hyaluronic acid (HA-K 15-45 kDa; ARD) at 1 mg/mL. The culture medium was then collected and the IL-8 content was determined. n=7 different F508del/F508del CF patients. p<0.001 (***); p<0.01 (**); p<0.05 (*). ns: non-significant.
Background: In an ELISA, binding on a coated surface is turned into a signal by an enzyme label.

Experiment [2] relates to IL-8 secreted by non-CF human airway epithelial cells. As to the kind of experiment: IL-8 ELISA, non-CF airway epithelial cell monolayers, Cytomix + treatment 24 h (co-treatment). The conditions noted are these: FIG. 13, 16; co-treatment: Cytomix + HA 1 mg/mL or Dexa 10^-6M 24 h; n=8 non-CF patients. Here is the method: as §1, with “13:” for “3:”, “non-CF” for “F508del/F508del CF”, “IFNγ” for “IFNγ;”, “ng/ml” for “ng/mL”, “n=8 different non-CF patients.” for “n=7 F508del/F508del CF patient.”
as §2, with “16:” for “6:”, “non-CF” for “F508del/F508del CF”, “ng/ml” for “ng/mL”, “10^-6M),” for “10^-6M), or”, “potassium hyaluronic” for “potassium-hyaluronic”, “n=8” for “n=7”

Experiment [3] concerns IL-8 secreted by human COPD airway epithelial cells. Description: IL-8 ELISA, COPD airway epithelial cell monolayers, Cytomix 24 h then Cytomix + treatment 24 h (curative). The conditions noted are these: FIG. 17, 19; curative: Cytomix 24 h, then Cytomix + HA 1 mg/mL or Dexa 10^-6M 24 h; n=5 COPD patients. The method, then: FIG. 17: Measurement by ELISA assay of the pro-inflammatory chemokine IL-8 secreted human COPD airway epithelial cells cultured as monolayers. Airway epithelial cells were seeded in 48-wells plates and cultured until confluence was reached. Cells were then treated for 24 h with a pro-inflammatory chemokine cocktail (TNFα, IL1β and IFNγ 10 ng/ml each) called Cytomix (Cy). Cells were thereafter treated with a combo containing Cytomix and the anti-inflammatory dexamethasone (Dexa; 10^-6M), 15-45 kDa sodium-hyaluronic acid (HA-Na 15-45 kDa) (ARD—Pomacle—France—as prepared according to WO2004050187), 15-30 kDa sodium-hyaluronic acid (HA-Na 15-30 kDa) (Sigma Aldrich), or 30-50 kDa sodium-hyaluronic acid (HA-Na 30-50 kDa) (Sigma Aldrich) at 1 mg/mL during the following 24 h. The culture medium was finally collected and the IL-8 content was determined by ELISA assay. n=5 different COPD patients. p<0.001 (***); p<0.01 (**); p<0.05 (*). ns: non-significant.
FIG. 19: Measurement by ELISA assay of the pro-inflammatory chemokine IL-8 secreted by human COPD airway epithelial cells cultured as monolayers. Airway epithelial cells were seeded in 48-wells plates and cultured until confluence was reached. Cells were then treated for 24 h with a pro-inflammatory chemokine cocktail (TNFα, IL1β and IFNγ 10 ng/ml each) called Cytomix (Cy). Cells were thereafter treated with a combo containing Cytomix and the anti-inflammatory dexamethasone (Dexa; 10^-6M), or 15-45 kDa sodium-hyaluronic acid (HA-Na 15-45 kDa) (ARD—Pomacle—France—as prepared according to WO2004050187), 15-45 kDa calcium-hyaluronic acid (HA-Ca 15-45 kDa; ARD), or 15-45 kDa potassium hyaluronic acid (HA-K 15-45 kDa; ARD) at 1 mg/mL during the following 24 h. The culture medium was finally collected and the IL-8 content was determined. n=5 different COPD patients. p<0.001 (***); p<0.01 (**); p<0.05 (*). ns: non-significant.

With “15-45 kDa calcium-hyaluronic acid [HA-Ca 15-45 kDa]”, the entries for the “decrease in IL-8 secretion” value in experiment [1], in experiment [2] and in experiment [3] were 11.6%, 8.5% and 61.5%, respectively.
For `C[C@@H]1C[C@H]2[C@@H]3CCC4=CC(=O)C=C[C@]4(C)[C@@]3(F)[C@@H](O)C[C@]2(C)[C@@]1(O)C(=O)CO` [Dexamethasone, dexamethasone, reference compound] the same measures were 21.4%, 33.9% and 68.8%.
For “30-50 kDa sodium-hyaluronic acid [HA-Na 30-50 kDa]” the same measures were 30.1%, 32.1% and 69.5%.
For “15-45 kDa sodium-hyaluronic acid [HA-Na 15-45 kDa]” the same measures were 33.9%, 41.6% and 60.2%.
Consider “15-30 kDa sodium-hyaluronic acid [HA-Na 15-30 kDa]”, for which the entries for the “decrease in IL-8 secretion” value in experiment [1], in experiment [2] and in experiment [3] were 40.2%, 38.1% and 65%, respectively.
For “15-45 kDa potassium-hyaluronic acid [HA-K 15-45 kDa]” the same measures were 30%, 22.2% and 61.1%.
